Tests used:
[1] = biological target: T1, murine CB2 receptors (Mus musculus, UniProt P47936); experiment: [3H]-CP-55,940 competition binding, mouse spleen membranes
T1 construct: membranes from mouse brain and spleen were used, respectively; from tissue; host or cells: mouse spleen membranes, CD-1 mice
Procedure: To evaluate the affinity of synthetic cannabinoids for murine CB1 and CB2 receptors, membranes from mouse brain and spleen were used, respectively. Following excision from mice, tissues were suspended in 50 mM Tris HCl, pH 7.4 at 4 °C. The mouse brain and spleen tissues were homogenized with a Polytron and subsequently centrifuged for 10 min at 2000 × g. The resulting supernatants were filtered, centrifuged for 20 min at 40,000 × g and the pellets were used for competition binding experiments (Vincenzi et al. [2013]).
(§1) Competition binding experiments were carried out incubating 0.5 nM [^3H]-CP-55,940 (Perkin Elmer Life and Analytical Sciences, USA) and different concentrations of the tested compounds for 90 or 60 min at 30 °C for CB1 or CB2 receptors, respectively. […] Non-specific binding was determined in the presence of 1 mM WIN 55,212–2 (Vincenzi et al. [2013]). Bound and free radioactivity were separated by filtering the assay mixture through Whatman GF/C glass fiber filters using a Brandel cell harvester (Brandel Instruments, Unterföhring, Germany). The filter-bound radioactivity was counted using a Packard Tri Carb 2810 TR scintillation counter (Perkin Elmer Life and Analytical Sciences, USA).
(§2) The protein concentration was determined according to a Bio-Rad method (500–0006; Bio-Rad Laboratories, Hercules, CA, USA) with bovine serum albumin as a reference standard. […]

[2] = biological target: T2, human CB2 receptors (Homo sapiens, UniProt P34972); experiment: [3H]-CP-55,940 competition binding, hCB2 CHO membranes
T2 construct: host or cells: CHO cells
T2 sequence (P34972 whole entry): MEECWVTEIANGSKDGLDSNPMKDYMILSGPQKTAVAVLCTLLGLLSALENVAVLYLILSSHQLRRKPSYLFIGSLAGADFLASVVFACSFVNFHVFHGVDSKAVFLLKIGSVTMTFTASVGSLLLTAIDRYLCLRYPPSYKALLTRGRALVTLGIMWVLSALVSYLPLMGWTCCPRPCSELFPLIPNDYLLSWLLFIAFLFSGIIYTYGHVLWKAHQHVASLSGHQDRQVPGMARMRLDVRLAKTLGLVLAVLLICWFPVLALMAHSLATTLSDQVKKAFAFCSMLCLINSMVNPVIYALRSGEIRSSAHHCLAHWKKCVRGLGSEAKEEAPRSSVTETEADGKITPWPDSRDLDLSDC
Procedure: CHO cells transfected with human CB1 or CB2 receptors (Perkin Elmer Life and Analytical Sciences, USA) were grown adherently and maintained in Ham’s F12 containing 10% fetal bovine serum, penicillin (100 U/ml), streptomycin (100 µg/ml), and Geneticin (G418, 0.4 mg/ml) at 37 °C in 5% CO2/95% air. To obtain membranes, cells were washed with PBS and scraped off with ice-cold hypotonic buffer (5 mM Tris HCl, 2 mM EDTA, pH 7.4). The cell suspension was homogenized with a Polytron and then centrifuged for 30 min at 40,000 × g. […]
as §1, §2

[3] = biological target: CB1 receptors; design: method as in Howlett et al. [2002]; Hess et al. [2015]; settings: ref Howlett et al. [2002]; Hess et al. [2015]; read-out: CB1 receptor Ki; cited from earlier work
[4] = biological target: T2, human CB2 receptors; experiment: Cyclic AMP assay, hCB2 CHO cells; type: cell-based; settings: for agonist behaviour (inhibition of forskolin-stimulated cAMP production): CHO cells, human CB2
Procedure: (§3) CHO cells transfected with human CB1 or CB2 receptors were washed with PBS, detached with trypsin, and centrifuged for 10 min at 200 × g. The pellet containing 1 × 10^6 cells/assay was suspended in 0.5 ml of buffer containing150 mM NaCl, 2.7 mM KCl, 0.37 mM NaH2PO4, 1 mM MgSO4, 1 mM CaCl2, 5 mM HEPES, 10 mM MgCl2, and 5 mM glucose, at pH 7.4 and 37 °C. Cells were pre-incubated with 0.5 mM of the phosphodiesterase inhibitor 4-(3-butoxy-4-methoxybenzyl)-2-imidazolidinone (Ro 20–1724;) for 10 min in a shaking bath at 37 °C. The potency of the examined compounds to inhibit adenylate cyclase activity was determined in the presence of forskolin 1-µM stimulation. The reaction was terminated by the addition of cold 6% trichloroacetic acid (TCA) and the final aqueous solution was tested for cyclic AMP levels by a competition protein binding assay (AlphaScreen cAMP Detection Kit, Cat. Number 6760635D, Perkin Elmer Life and Analytical Sciences, USA) following the manufacturer’s instructions; Vincenzi et al. [2013]).
(§4) The protein concentration was determined according to a Bio-Rad method (500–0006; Bio-Rad Laboratories, Hercules, CA, USA) with bovine serum albumin as a reference standard. Inhibitory binding constants, Ki, were calculated from the IC50 values according to the Cheng and Prusoff equation: Ki = IC50/(1 + [C*]/KD*), where [C*] is the concentration of the radioligand and KD* its dissociation constant. Functional experiments were analyzed by non-linear regression analysis using the equation for a sigmoid concentration–response curve (GraphPad Prism, USA). All the data are expressed as the mean ± SEM of three independent experiments.

[5] = test system: CD-1 male mice; design: method as in Bilel et al. [2020]; settings: ref Bilel et al. [2020]; cited from earlier work
[6] = test system: CD-1 male mice; design: method as in Bilel et al. ([2020]); settings: i.p., value ± SEM, elaborated from earlier data, ref Bilel et al. ([2020]); cited from earlier work
[7] = biological target: T3, human CB1 receptors (Homo sapiens, UniProt P21554); experiment: [3H]-CP-55,940 competition binding, hCB1 CHO membranes; settings: for selectivity index (ratio Ki CB2 / Ki CB1): human CB receptors
T3 construct: host or cells: CHO cells
T3 sequence (P21554 whole entry): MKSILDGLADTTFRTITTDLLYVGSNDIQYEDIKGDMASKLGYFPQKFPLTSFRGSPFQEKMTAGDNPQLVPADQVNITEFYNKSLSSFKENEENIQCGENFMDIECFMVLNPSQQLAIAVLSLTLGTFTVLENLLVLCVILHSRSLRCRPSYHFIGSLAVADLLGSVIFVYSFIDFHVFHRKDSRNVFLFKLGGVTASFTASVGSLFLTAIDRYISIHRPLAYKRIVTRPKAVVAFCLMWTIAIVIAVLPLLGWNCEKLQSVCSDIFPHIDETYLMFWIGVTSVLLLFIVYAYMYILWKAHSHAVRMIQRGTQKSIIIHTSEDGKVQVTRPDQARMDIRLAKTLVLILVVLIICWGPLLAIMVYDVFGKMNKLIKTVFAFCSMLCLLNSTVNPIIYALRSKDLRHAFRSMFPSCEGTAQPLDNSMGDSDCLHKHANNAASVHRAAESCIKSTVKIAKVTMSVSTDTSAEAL
Procedure: CHO cells transfected with human CB1 or CB2 receptors (Perkin Elmer Life and Analytical Sciences, USA) were grown adherently and maintained in Ham’s F12 containing 10% fetal bovine serum, penicillin (100 U/ml), streptomycin (100 µg/ml), and Geneticin (G418, 0.4 mg/ml) at 37 °C in 5% CO2/95% air. To obtain membranes, cells were washed with PBS and scraped off with ice-cold hypotonic buffer (5 mM Tris HCl, 2 mM EDTA, pH 7.4). The cell suspension was homogenized with a Polytron and then centrifuged for 30 min at 40,000 × g. The membrane pellet was suspended in 50 mM Tris HCl buffer (pH 7.4) containing 2.5 mM EDTA, 5 mM MgCl2, 0.5% BSA for CB1 receptors or in 50 mM Tris HCl (pH 7.4), 1 mM EDTA, 5 mM MgCl2, 0.5% BSA for CB2 receptors (Vincenzi et al. [2013]).
Competition binding experiments were carried out incubating 0.5 nM [^3H]-CP-55,940 (Perkin Elmer Life and Analytical Sciences, USA) and different concentrations of the tested compounds for 90 or 60 min at 30 °C for CB1 or CB2 receptors, respectively. For human cannabinoid receptors, membranes obtained from CHO cells transfected with human CB1 or CB2 receptors (2 µg protein/100 µl) were used. Competition binding experiments at murine cannabinoid receptors were performed with mouse brain membranes (40 µg protein/100 µl) or with mouse spleen membranes (80 µg protein/100 µl) for CB1 receptors or CB2 receptors, respectively. Non-specific binding was determined in the presence of 1 mM WIN 55,212–2 (Vincenzi et al. [2013]). Bound and free radioactivity were separated by filtering the assay mixture through Whatman GF/C glass fiber filters using a Brandel cell harvester (Brandel Instruments, Unterföhring, Germany). The filter-bound radioactivity was counted using a Packard Tri Carb 2810 TR scintillation counter (Perkin Elmer Life and Analytical Sciences, USA).
as §4

[8] = biological target: T3, human CB1 receptors; experiment: Cyclic AMP assay, hCB1 CHO cells; type: cell-based; settings: for agonist behaviour (inhibition of forskolin-stimulated cAMP production): CHO cells, human CB1
Procedure: as §3, §4

T1 sequence (P47936 whole entry): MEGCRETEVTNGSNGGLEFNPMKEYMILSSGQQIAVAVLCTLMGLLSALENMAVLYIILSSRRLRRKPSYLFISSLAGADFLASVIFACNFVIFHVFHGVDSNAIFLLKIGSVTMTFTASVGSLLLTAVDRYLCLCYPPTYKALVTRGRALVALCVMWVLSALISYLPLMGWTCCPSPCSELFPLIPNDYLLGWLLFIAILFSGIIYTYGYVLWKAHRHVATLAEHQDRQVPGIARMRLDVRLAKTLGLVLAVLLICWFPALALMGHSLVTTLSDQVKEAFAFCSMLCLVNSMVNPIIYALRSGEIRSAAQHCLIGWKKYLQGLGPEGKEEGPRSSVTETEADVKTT

Compound	Ki [1] [nM]	Ki [2] [nM]	Ki [3] [nM]	IC50 [4] [nM]	agonist behaviour (inhibition of forskolin-stimulated cAMP production) [4]	time during which distance traveled was reduced [5]	ED50 (mg/kg), Visual placing [6] [mg/kg]	Ki [7] [nM]	selectivity index (ratio Ki CB2 / Ki CB1) [7]	IC50 [8] [nM]	agonist behaviour (inhibition of forskolin-stimulated cAMP production) [8]
O=C(c1cccc2ccccc12)c1cn(CCCCCF)c2ccccc12 [AM-2201, 1-[(5-Fluoropentyl)-1H-indol-3-yl](1-naphthylenyl) methanone]	14.6 ± 1.2	16.4 ± 1.5	1	31.8 ± 2.9	full agonists	up to 45 min	0.500 ± 0.030	1.66 ± 0.13	9.9	2.84 ± 0.21	full agonists
Cc1ccc(C(=O)c2cn(CCCCCF)c3ccccc23)c2ccccc12 [MAM-2201, 1-[(5-fluoropentyl)-1H-indol-3-yl](4-methyl-1-naphthalenyl) methanone]	9.6 ± 1.9	10.3 ± 2.1	2.07 ± 0.82	22.4 ± 3.8	full agonists			1.11 ± 0.12	9.3	1.26 ± 0.56	full agonists

Source: article PMC10272271, “MAM-2201 acute administration impairs motor, sensorimotor, prepulse inhibition, and memory functions in mice: a comparison with its analogue AM-2201” (Psychopharmacology, 2023)
